In assay [1] the test system is D54MG glioblastoma multiforme cell line. The assay is described as follows: Cell proliferation assay (CellTiter-Glo), Aurora inhibitor combined with TRAIL. The assay is classed as cell-based. The note with it: Aurora inhibitor at 1 μM combined with TRAIL, 72 h, FIG. 1. The procedure: Cells were seeded into 96-well plates at 2,500 cells per well and allowed to adhere overnight. Compounds and TRAIL were added the following day, and cells were incubated at 37° C. for 72 h. […] Percent inhibition of viability was determined relative to cells treated with DMSO alone (0.1%). Data are representative of at least three independent experiments with each data point carried out in triplicate.
For orientation: In ATP-based viability assays light output follows the ATP content of the culture.

Assay [2] concerns glioma cell lines where DR5 was induced. The assay is described as follows: TRAIL-mediated apoptosis in glioma cell lines after polyploidization. The assay is classed as cell-based. The following applies: glioma cell lines where DR5 was induced following polyploidization. The procedure:
To identify candidate apoptosis-sensitizing genes that could be exploited in combination with Aurora kinase inhibitors in malignant glioma, global gene expression analysis in a D54MG glioma cell derivative treated with three Aurora kinases inhibitors chosen for their distinctive selectivities was carried out: MLN8054 (4-((9-chloro-7-(2,6-difluorophenyl)-5H-pyrimidol[5,4-d][2]benzazepin-2-yl)amino)benzoic acid, Aurora-A-selective), AZD1152-HQPA (Aurora-B-selective), and VX-680 (Aurora-A/B). This analysis identified the TRAIL death receptor, DR5, as an apoptosis sensitizing gene induced selectively following inhibition of Aurora-B kinase cancer cells. In glioma cell lines where DR5 was induced following polyploidization, the sensitivity, kinetics, and magnitude of TRAIL-mediated apoptosis were enhanced.

As to `CCN(CCO)CCCOc1ccc2c(Nc3cc(CC(=O)Nc4cccc(F)c4)[nH]n3)ncnc2c1` [AZD 1152-HQPA], the “anti-proliferative effect of combination with TRAIL” value (from here on “anti-proliferative effect”) in assay [1] is listed as “synergistic anti-proliferative effects”.

In the case of `Cc1cc(Nc2cc(N3CCN(C)CC3)nc(Sc3ccc(NC(=O)C4CC4)cc3)n2)n[nH]1` [VX-680/MK0457], in assay [1], the “anti-proliferative effect” value is reported as “synergistic anti-proliferative effects”.

With `O=C(O)c1ccc(Nc2ncc3c(n2)-c2ccc(Cl)cc2C(c2c(F)cccc2F)=NC3)cc1` [MLN-8054, 4-((9-chloro-7-(2,6-difluorophenyl)-5H-pyrimidol[5,4-d][2]benzazepin-2-yl)amino)benzoic acid], the “anti-proliferative effect” value in assay [1] is “synergistic anti-proliferative effects”.

B1: TRAIL: tumor necrosis factor (TNF)-related apoptosis inducing ligand; binds death receptors DR4 and DR5 (protein, UniProt P50591 1-281, looked up)
Tumor necrosis factor ligand …: MAMMEVQGGPSLGQTCVLIVIFTVLLQSLCVAVTYVYFTNELKQMQDKYSKSGIACFLKEDDSYWDPNDEESMNSPCWQVKWQLRQLVRKMILRTSEETISTVQEKQQNISPLVRERGPQRVAAHITGTRGRSNTLSSPNSKNEKALGRKINSWESSRSGHSFLSNLHLRNGELVIHEKGFYYIYSQTYFRFQEEIKENTKNDKQMVQYIYKYTSYPDPILLMKSARNSCWSKDAEYGLYSIYQGGIFELKENDRIFVSVTNEHLIDMDHEASFFGAFLVG
For the molecule B1, the “sensitivity, kinetics, and magnitude of TRAIL-mediated apoptosis” value in assay [2] is given as “enhanced”.

(Values after US20090203671A1, “METHOD OF TREATING CANCER” (ABBOTT LABORATORIES, priority 2007, published 2009).)
